In patent EP4722213A1, “NITROGEN-CONTAINING FUNCTIONAL GROUP-SUBSTITUTED PYRIDAZINOPYRIDONE DERIVATIVE AND USE THEREOF” (Sichuan Huiyu Pharmaceutical Co., Ltd., priority 2023, dated 2024):
pIC50: −log10 of the molar value. Structures can show the parent of a compound that is named as a salt.

Biological target: T1, SOS1 (Homo sapiens, UniProt Q07889)
T1 sequence (Q07889 1-1333): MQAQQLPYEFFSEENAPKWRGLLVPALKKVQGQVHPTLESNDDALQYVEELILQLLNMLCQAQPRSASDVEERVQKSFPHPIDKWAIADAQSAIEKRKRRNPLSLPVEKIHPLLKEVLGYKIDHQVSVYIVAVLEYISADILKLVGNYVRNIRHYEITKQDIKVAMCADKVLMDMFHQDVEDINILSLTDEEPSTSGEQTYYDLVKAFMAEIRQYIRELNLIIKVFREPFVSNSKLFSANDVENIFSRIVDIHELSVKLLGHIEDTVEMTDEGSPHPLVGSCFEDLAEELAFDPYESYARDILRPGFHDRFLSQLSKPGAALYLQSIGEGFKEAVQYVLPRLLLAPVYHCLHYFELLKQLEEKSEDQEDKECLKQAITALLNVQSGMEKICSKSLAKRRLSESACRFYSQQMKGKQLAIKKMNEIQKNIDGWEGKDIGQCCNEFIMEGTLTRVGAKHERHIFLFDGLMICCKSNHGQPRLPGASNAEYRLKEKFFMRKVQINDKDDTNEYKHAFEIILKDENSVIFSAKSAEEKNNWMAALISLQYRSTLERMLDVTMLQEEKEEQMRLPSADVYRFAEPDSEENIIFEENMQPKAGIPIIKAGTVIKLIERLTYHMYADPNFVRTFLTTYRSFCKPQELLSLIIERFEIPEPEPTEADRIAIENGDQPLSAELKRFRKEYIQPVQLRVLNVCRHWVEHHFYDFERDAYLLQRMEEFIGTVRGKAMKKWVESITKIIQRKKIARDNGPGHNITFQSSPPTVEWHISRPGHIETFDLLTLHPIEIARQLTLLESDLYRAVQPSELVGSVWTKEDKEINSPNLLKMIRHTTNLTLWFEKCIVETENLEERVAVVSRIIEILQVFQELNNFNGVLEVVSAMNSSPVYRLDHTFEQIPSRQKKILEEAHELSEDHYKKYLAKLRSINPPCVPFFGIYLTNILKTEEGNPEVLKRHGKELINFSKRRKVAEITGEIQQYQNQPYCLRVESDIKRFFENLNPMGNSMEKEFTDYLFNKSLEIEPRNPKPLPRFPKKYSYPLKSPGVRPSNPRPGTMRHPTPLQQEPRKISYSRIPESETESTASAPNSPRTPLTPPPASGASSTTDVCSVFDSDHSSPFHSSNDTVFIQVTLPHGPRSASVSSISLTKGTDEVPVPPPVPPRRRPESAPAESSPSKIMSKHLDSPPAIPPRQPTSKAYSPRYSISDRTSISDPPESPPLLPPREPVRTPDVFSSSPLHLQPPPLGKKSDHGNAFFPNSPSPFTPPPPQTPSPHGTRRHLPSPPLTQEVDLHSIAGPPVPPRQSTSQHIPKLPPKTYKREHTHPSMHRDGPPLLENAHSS
Assay: biochemical

SMILES: C[C@@H](Nc1nnc(N2CCC(CO)C2)c2cc(=O)n(C3(C)CC3)cc12)c1cccc(C(F)F)c1F (stereo partly drawn) [Example 128, 4-(((R)-1-(3-(difluoromethyl)-2-fluorophenyl)ethyl)amino)-1-(3-(hydroxymethyl)pyrrolidin-1-yl)-6-(1-methylcyclopropyl) pyrido[3,4-d]pyridazin-7(6H)-one]
- pIC50: 8.38

SMILES: C[C@@H](Nc1nnc(N2CC[C@@H](O)C2)c2cc(=O)n(C3(C)CC3)cc12)c1cccc(C(F)F)c1F [Example 137, 4-(((R)-1-(3-(difluoromethyl)-2-fluorophenyl)ethyl)amino)-1-((R)-3-hydroxypyrrolidin-1-yl)-6-(1-methylcyclopropyl) pyrido[3,4-d]pyridazin-7(6H)-one formate]
- pIC50: 8.32

SMILES: Cc1c(C#N)cccc1[C@@H](C)Nc1nnc(N2CCN(C(C)C)CC2)c2cc(=O)n(C3CCN(C)CC3)cc12 [Example 132, (R)-3-(1-((1-(4-isopropylpiperazin-1-yl)-6-(1-methylpiperidin-4-yl)-7-oxo-6,7-dihydropyrido[3,4-d]pyridazin-4-yl)amino)ethyl)-2-methylbenzonitrile]
- pIC50: 7.78

SMILES: C[C@@H](Nc1nnc(-n2cncn2)c2cc(=O)n(C3CC3)cc12)c1cccc(C(F)F)c1F [Example 1, (R)-6-cyclopropyl-4-((1-(3-(difluoromethyl)-2-fluorophenyl)ethyl)amino)-1-(1H-1,2,4-triazol-1-yl) pyrido[3,4-d]pyridazin-7(6H)-one]
- pIC50: 7.87

SMILES: Cc1cc(N)cc([C@@H](C)Nc2nnc(N3CCN(C4CC4)CC3)c3cc(=O)n(C4(C)CC4)cc23)c1F [Example 162, (R)-4-((1-(5-amino-2-fluoro-3-methylphenyl)ethyl)amino)-1-(4-cyclopropylpiperazin-1-yl)-6-(1-methylcyclopropyl) pyrido[3,4-d]pyridazin-7(6H)-one]
- pIC50: 8.17

SMILES: C[C@@H](Nc1nnc(N2CC3CCC(C2)N3C)c2cc(=O)n(C3(C)CC3)cc12)c1cccc(C(F)F)c1F [Example 193]
- pIC50: 8.37

SMILES: C[C@@H](Nc1nnc(N2CC(F)(F)C2)c2cc(=O)n(C3CC3)cc12)c1cccc(C(F)F)c1F [Example 20, (R)-6-cyclopropyl-1-(3,3-difluoroazetidin-1-yl)-4-((1-(3-(difluoromethyl)-2-fluorophenyl)ethyl)amino)pyrido[3,4-d]pyridazin-7(6H)-one]
- pIC50: 7.62

SMILES: C[C@@H](Nc1nnc(N2CCC3(CC2)CC3(F)F)c2cc(=O)n(C3(C)CC3)cc12)c1cccc(C(F)F)c1F [Example 186, (R)-1-(1,1-difluoro-6-azaspiro[2.5]octan-6-yl)-4-((1-(3-(difluoromethyl)-2-fluorophenyl)ethyl)amino)-6-(1-methylcyclopropyl) pyrido[3,4-d]pyridazin-7(6H)-one]
- pIC50: 7.51

SMILES: C[C@@H](Nc1nnc(N2CC3CC3C2)c2cc(=O)n(C3CC3)cc12)c1cccc(C(F)F)c1F (stereo partly drawn) [Example 18, 1-(3-azabicyclo[3.1.0]hexan-3-yl)-6-cyclopropyl-4-(((R)-1-(3-(difluoromethyl)-2-fluorophenyl)ethyl)amino)pyrido[3,4-d]pyridazin-7(6H)-one]
- pIC50: 8.24

SMILES: C[C@@H](Nc1nnc(N2CCC3(CCCO3)CC2)c2cc(=O)n(C3(C)CC3)cc12)c1cccc(C(F)F)c1F [Example 199, (R)-4-((1-(3-(difluoromethyl)-2-fluorophenyl)ethyl)amino)-6-(1-methylcyclopropyl)-1-(1-oxa-8-azaspiro[4.5]decan-8-yl)pyrido[3,4-d]pyridazin-7(6H)-one]
- pIC50: 7.90

SMILES: C[C@@H](Nc1nnc(N2CCN(C)CC2)c2cc(=O)n(C)cc12)c1cccc(C(F)F)c1F [Example 138, (R)-4-((1-(3-(difluoromethyl)-2-fluorophenyl)ethyl)amino)-6-methyl-1-(4-methylpiperazin-1-yl)pyrido[3,4-d]pyridazin-7(6H)-one formate]
- pIC50: 7.97

SMILES: Cc1c([C@@H](C)Nc2nnc(N3CCC(F)(F)C3)c3cc(=O)n(C4(C)CC4)cc23)cccc1C(F)(F)F [Example 67, (R)-1-(3,3-difluoropyrrolidin-1-yl)-4-((1-(2-methyl-3-(trifluoromethyl)phenyl)ethyl)amino)-6-(1-methylcyclopropyl) pyrido[3,4-d]pyridazin-7(6H)-one]
- pIC50: 7.54

SMILES: CC(C)N1CCN(c2nnc(N[C@H](C)c3cccc(C(F)F)c3F)c3cn(N4CC5CCCC5C4)c(=O)cc23)CC1 (stereo partly drawn) [Example 149, 4-(((R)-1-(3-(difluoromethyl)-2-fluorophenyl)ethyl)amino)-6-(hexahydrocyclopenta[c]pyrrol-2(1H)-yl)-1-(4-isopropylpiperazin-1-yl)pyrido[3,4-d]pyridazin-7(6H)-one]
- pIC50: 8.07

SMILES: Cc1c(C#N)cccc1[C@@H](C)Nc1nnc(N2CCS(=O)(=O)CC2)c2cc(=O)n(C3(C)CC3)cc12 [Example 72, (R)-3-(1-((1-(1,1-dioxidothiomorpholino)-6-(1-methylcyclopropyl)-7-oxo-6,7-dihydropyrido[3,4-d]pyridazin-4-yl)amino)ethyl)-2-methylbenzonitrile]
- pIC50: 7.30

SMILES: CC(C)N1CCN(c2nnc(N[C@H](C)c3cccc(C(F)(F)F)c3)c3cn(C4(C)CC4)c(=O)cc23)CC1 [Example 155, (R)-1-(4-isopropylpiperazin-1-yl)-6-(1-methylcyclopropyl)-4-((1-(3-(trifluoromethyl)phenyl)ethyl)amino)pyr ido[3,4-d]pyridazin-7(6H)-one formate]
- pIC50: 8.25

SMILES: Cc1c(C#N)cccc1[C@@H](C)Nc1nnc(N2CCN(C3CC3)CC2)c2cc(=O)n(C3CC3)cc12 [Example 99, (R)-3-(1-((6-cyclopropyl-1-(4-cyclopropylpiperazin-1-yl)-7-oxo-6,7-dihydropyrido[3,4-d]pyridazin-4-yl)amino)ethyl)-2-methylbenzonitrile]
- pIC50: 7.95

SMILES: C[C@@H](Nc1nnc(N2CCN(C)[C@@H](C)C2)c2cc(=O)n(C3(C)CC3)cc12)c1cccc(C(F)(F)F)c1 [Example 180, 1-((S)-3,4-dimethylpiperazin-1-yl)-6-(1-methylcyclopropyl)-4-(((R)-1-(3-(trifluoromethyl)phenyl)ethyl)amino)pyr ido[3,4-d]pyridazin-7(6H)-one formate]
- pIC50: 8.14

SMILES: C[C@@H](Nc1nnc(N2CCC3(CCOCC3)C2)c2cc(=O)n(C3(C)CC3)cc12)c1cccc(C(F)F)c1F [Example 200, (R)-4-((1-(3-(difluoromethyl)-2-fluorophenyl)ethyl)amino)-6-(1-methylcyclopropyl)-1-(8-oxa-2-azaspiro[4.5]decan-2-yl)pyrido[3,4-d]pyridazin-7(6H)-one]
- pIC50: 8.38

SMILES: C[C@@H](Nc1nnc(N2CCC[C@@H]2CO)c2cc(=O)n(C3(C)CC3)cc12)c1cccc(C(F)F)c1F [Example 139, 4-(((R)-1-(3-(difluoromethyl)-2-fluorophenyl)ethyl)amino)-1-((R)-2-(hydroxymethyl)pyrrolidin-1-yl)-6-(1-methylcyclopropyl) pyrido[3,4-d]pyridazin-7(6H)-one]
- pIC50: 8.21

SMILES: CCN1CCN(c2nnc(N[C@H](C)c3cccc(C#N)c3C)c3cn(N4CC5CCCC5C4)c(=O)cc23)CC1 (stereo partly drawn) [Example 153, 3-((1R)-1-((6-(hexahydrocyclopenta[c]pyrrol-2(1H)-yl)-1-(4-ethylpiperazin-1-yl)-7-oxo-6,7-dihydropyrido[3,4-d]pyridazin-4-yl)amino)ethyl)-2-methylbenzonitrile]
- pIC50: 8.34

SMILES: C[C@@H](Nc1nnc(N2CC3CC3C2)c2cc(=O)n(C3(C)CC3)cc12)c1cccc(C(F)F)c1F (stereo partly drawn) [Example 21, 1-(3-azabicyclo[3.1.0]hexan-3-yl)-4-(((R)-1-(3-(difluoromethyl)-2-fluorophenyl)ethyl)amino)-6-(1-methylcyclopropyl) pyrido[3,4-d]pyridazin-7(6H)-one]
- pIC50: 8.16

SMILES: C[C@@H](Nc1nnc(N2CCN(C)CC2)c2cc(=O)n(N3CC4CCCC4C3)cc12)c1cccc(C(F)F)c1F (stereo partly drawn) [Example 136, 4-(((R)-1-(3-(difluoromethyl)-2-fluorophenyl)ethyl)amino)-6-(hexahydrocyclopenta[c]pyrrol-2(1H)-yl)-1-(4-methylpiperazin-1-yl)pyrido[3,4-d]pyridazin-7(6H)-one formate]
- pIC50: 8.21
